Measured values taken from patent US11612577B2, “Biomarkers of METAP2 inhibitors and applications thereof” (SynDevRx, Inc., priority 2018, dated 2023).
Read-outs that look alike come from different tables or passages of the source.

What was measured:
[1] = BYL-719 induced hyperglycemia in C57Bl/6 mice, ZGN-1061 pre-treatment; assay type: in vivo
Protocol: The following is an example showing that MetAP2 inhibitors, specifically ZGN-1061 can be used in combination with PI3K inhibitors, specifically BYL-719, to treat cancer and to attenuate treatment-induced metabolic dysfunction. In this example, male C57BI/6 mice, age 10-12 weeks, were used. The mice (n=8/treatment group) were administered doses of either vehicle control (10 mM phosphate in 5% mannitol, pH 7.2), ZGN-1061 alone, ZGN-1061 in combination with BYL-719 or BYL-719 alone, as indicated in Table 4. In Table 4, the time of dose indicates the time relative to the administration of BYL-719. Blood glucose was monitored using 10 ul of blood taken from the tail of the mice and a glucometer, starting prior to the BYL-719 administration (time 0) and then again at various times points (15, 30, 60, 90, 120 and 180 minutes) after the administration of BYL-719.

[2] = cited from earlier work
[3] = cited from earlier work; remark: listed apart in the source
[4] = requires extended intravenous administration; cited from earlier work
[5] = human, in vivo; cited from earlier work

In the case of `Cc1nc(NC(=O)N2CCC[C@H]2C(N)=O)sc1-c1ccnc(C(C)(C)C(F)(F)F)c1` [BYL-719, alpelisib], the blood glucose ([1]; BYL-719 45 mg/kg PO, male C57Bl/6 mice) was “elicited robust hyperglycemia”.
In the case of `CO[C@@H]1[C@H](OC(=O)/C=C/c2ccc(OCCN(C)C)cc2)CC[C@]2(CO2)[C@H]1[C@@]1(C)O[C@@H]1CC=C(C)C` [CKD-732], the MTD ([2]; every fourth day schedule, confusion and insomnia) is listed as 15 mg/m2/day and the body weight ([3]; C57BL/6J mice and SD rats, 5 mg/kg/day) is listed as “weight loss”.
In the case of `CO[C@@H]1[C@H](OC(=O)NC(=O)CCl)CC[C@]2(CO2)[C@H]1[C@@]1(C)O[C@@H]1CC=C(C)C` [TNP-470, chloroacetylcarbamoylfumagillol], the half-life [4] is listed as “short half-life”, the toxicity in humans ([2]; dose-limiting neurotoxicity) is listed as “too toxic for human use” and the MTD ([2]; in combination with paclitaxel, dosed three times per week, neuropsychiatric toxicities) is listed as 60 mg/m2. For the same molecule, the obesity ([3]; mice, 15 or 20 mg/kg every other day) was “prevention of obesity” and the body weight ([3]; ob/ob mice, daily doses 2.5 mg/kg to 10 mg/kg) was “weight loss”.
For `CO[C@@H]1[C@H](OC(=O)N2CC(CCN3CCOCC3)C2)CC[C@]2(CO2)[C@H]1[C@@]1(C)O[C@@H]1CC=C(C)C` [ZGN-1061], the “hyperglycemia induced by BYL-719” value ([1]; pre-treatment 0.5 mg/kg SC at -4 h, -24 h or -72 h (QD x3) before BYL-719 45 mg/kg PO) was “attenuated hyperglycemia”.
For `CO[C@@H]1[C@H](OC(=O)/C=C/C=C/C=C/C=C/C(=O)O)CC[C@]2(CO2)[C@H]1[C@@]1(C)O[C@@H]1CC=C(C)C` [fumagillin], the body weight ([3]; C57BL/6 mice, oral 1 mg/kg daily) is given as “weight loss”.
In the case of pembrolizumab, the “patients with grade 3 or 4 hyperglycemia” value [5] is given as 3-6% and the “patients with hyperglycemic events” value [5] is given as 45-49%.
